The test system of the test is M. tuberculosis H37Rv growth inhibition with meropenem. Briefly: dose response, H37Rv, with and without meropenem (AID 434987).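 Further: growth over 7 days at 37 °C before Alamar Blue read on day 9.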
Setting [1] is: M. tuberculosis H37Rv growth inhibition, measured here: IC50 without meropenem.
Setting [2] is: M. tuberculosis H37Rv growth inhibition, measured here: IC90 without meropenem.
Setting [3] is: measured here: IC90 with meropenem.

As usually defined, the IC50 is the concentration at which inhibition is half-maximal. Usually IC90 stands for the point of the concentration-response curve where the effect stands at 90%. Lower therefore signals greater potency.

Activity calls are given as the source filed them. How the calls were made is not given here.

Regarding `CCOC(=O)/C(C#N)=C/c1ccc(OCC(=O)Nc2ccccc2)c(OC)c1`, the IC50 is 98.4 µM (inactive). Under setting [1], this compound showed an IC50 above 100 µM. In addition, the IC90 under setting [2] is above 100 µM. Under setting [3], this compound displayed an IC90 above 100 µM.
Take `COc1ccc(-c2csc(Nc3ncccc3C)n2)cc1OC`: the IC50 was 61.3 µM (inactive). Further, under setting [1], the IC50 is above 100 µM. The IC90 under setting [2] is above 100 µM. Further, the IC90 under setting [3] was above 100 µM.
On to `O=C(CCS(=O)(=O)c1ccccc1)N(CCCN1CCOCC1)c1nc2c(F)cccc2s1`, for which the IC50 was 11.3 µM. Further, the IC50 under setting [1] was above 100 µM. The compound also displayed an IC90 under setting [2] above 100 µM. The IC90 under setting [3] is above 25 µM.
As for `O=C1O/C(=C/c2ccccc2)N=C1c1ccccc1`, the IC50 is 1.34 µM. This compound showed an IC50 under setting [1] of 16.9 µM. Moreover, the IC90 under setting [2] is above 100 µM. Also, the IC90 under setting [3] turned out to be 28.3 µM.
For `Cc1c(-c2ccncc2)oc2ccc(Br)cc2c1=O` the same measures were > 100 µM (inactive), above 100 µM, above 100 µM and above 100 µM.
For `COc1cccc(/C=C/c2[nH]c(=O)[nH]c(=O)c2[N+](=O)[O-])c1O` the same measures were 9.24 µM, 24.2 µM, 26.6 µM and 15.9 µM.
On to `CC(C)OC(=O)CSc1nc(N2CCOCC2)c2c(c1C#N)CC(C)(C)OC2`, for which the IC50 is > 100 µM (inactive). For the same compound, the IC50 under setting [1] was above 100 µM. The IC90 under setting [2] is above 100 µM. Further, under setting [3], the IC90 is above 100 µM.
As to `COCCNC(=S)N/N=C(\C)c1cccc(OC)c1`, the IC50 is 17.8 µM. For the same compound, under setting [1], the IC50 turned out to be 47.1 µM. Besides, the IC90 under setting [2] is above 100 µM. For the same compound, under setting [3], the IC90 was above 100 µM.
On to `CCOC(=O)C(=CNc1ccc2c(c1)c1ccccc1n2CC)C(=O)OCC`, for which the IC50 is 15.2 µM. For the same compound, the half-maximal inhibitory concentration (IC50) under setting [1] was above 100 µM. Moreover, the IC90 under setting [2] was above 100 µM. The IC90 under setting [3] was above 25 µM.
In the case of `Cc1ccc(-c2cc(C(=O)N/N=C/C=C/c3ccccc3)n[nH]2)o1`, the IC50 was > 100 µM (inactive). The compound also gave an IC50 under setting [1] above 100 µM. The IC90 under setting [2] was above 100 µM. The same compound came in with a 90% effect concentration (IC90) under setting [3] above 100 µM.
Turning to `O=c1[nH]c(/C=C/c2cccc(Br)c2)nc2ccccc12`, the IC50 is > 100 µM (inactive). The IC50 under setting [1] was above 100 µM. The same compound returned an IC90 under setting [2] above 100 µM. Further, under setting [3], the IC90 was above 100 µM.
For `COc1cc(C(=O)Oc2cccnc2)cc(OC)c1OC`, the IC50 is 5.8 µM. Also, under setting [1], the IC50 is 48.4 µM. Besides, the 90% effect concentration (IC90) under setting [2] is above 100 µM. Further, under setting [3], the IC90 was 13.6 µM.
For `COCCCNc1nc(SCc2ccccc2)nc2sc3c(c12)CCC3`, in that order: 97.3 µM (inactive), above 100 µM, above 100 µM and above 100 µM.
For `COc1cc(/C(C)=N\NC(N)=S)cc(OC)c1OC`, in that order: 10.2 µM, above 100 µM, above 100 µM and 19.6 µM.
As to `Cn1c(/C=N/c2nc3ccccc3[nH]2)nc2ccccc21`, the IC50 is below 0.2 µM. This compound returned an IC50 under setting [1] of 3.82 µM. The compound also returned an IC90 under setting [2] above 100 µM. This compound came in with an IC90 under setting [3] of 4.17 µM.
For `C/C(=N\NC(=O)c1csc2ccccc12)c1ccc(O)cc1`, in that order: > 100 µM (inactive), above 100 µM, above 100 µM and above 100 µM.
Take `C=CCSc1nccc(-c2nn(-c3ccc(C)cc3)ccc2=O)n1`: the IC50 was 94.1 µM (inactive). The compound also gave an IC50 under setting [1] above 100 µM. In addition, the IC90 under setting [2] is above 100 µM. Under setting [3], this compound showed a concentration for an effect of 90% (IC90) above 100 µM.
As for `N#CCOC(=O)/C=C/c1ccc2c(c1)OCO2`, the IC50 is 29.7 µM. The compound also yielded an IC50 under setting [1] above 100 µM. The compound further had an IC90 under setting [2] above 100 µM. The same compound displayed an IC90 under setting [3] above 50 µM.
For the compound `CC(C)CC(=O)N1CCN(c2ccc([N+](=O)[O-])c(NCc3ccccc3)c2)CC1`, the IC50 was 44.9 µM (inactive). In addition, the IC50 under setting [1] stood at 46.7 µM. The compound further gave a concentration for an effect of 90% (IC90) under setting [2] of 51.5 µM. Moreover, under setting [3], the IC90 was 48.6 µM.
For `COc1cccc(-c2nnn(CC(=O)Nc3cc(OC)c(NC(=O)c4ccco4)cc3OC)n2)c1` the same measures were 31.2 µM, above 100 µM, above 100 µM and above 100 µM.
For `COc1ccc(CN(CCC#N)C(=S)NC(=O)c2ccccc2)cc1` the same measures were 10.6 µM, 79.1 µM, above 100 µM and above 100 µM.
For `Cn1c(O)c(C2=c3ccccc3=NC2=O)[nH]c1=S` the same measures were 16.6 µM, above 100 µM, above 100 µM and above 100 µM.
Turning to `S=c1[nH]cnc2scc(-c3ccc(Br)cc3)c12`, the IC50 is 28.8 µM. In addition, the IC50 under setting [1] is 98.8 µM. Besides, the IC90 under setting [2] was above 100 µM. Moreover, the concentration for an effect of 90% (IC90) under setting [3] was above 100 µM.
As to `O=C(/C=C/c1ccc([N+](=O)[O-])cc1)c1cccs1`, the IC50 is 5.35 µM. This compound also gave an IC50 under setting [1] of 22.2 µM. The compound also returned an IC90 under setting [2] of 95.1 µM. Under setting [3], the concentration for an effect of 90% (IC90) came to 12.2 µM.
For `COc1ccc2sc(-c3ccc(N(C)C)cc3)c(C#CC(C)(C)O)c2c1`, in that order: 19.8 µM, above 100 µM, above 100 µM and above 100 µM.
For `CCN(CC)C(=O)Cn1cc(C(=O)C(=O)N2CCN(c3ccccc3)CC2)c2ccccc21`, in that order: > 100 µM (inactive), above 100 µM, above 100 µM and above 100 µM.
For `O=C(CSc1n[nH]c(=O)n1C1CC1)c1ccc2c(c1)OCCO2` the same measures were 4.9 µM, 46.3 µM, above 100 µM and above 100 µM.
For the compound `COc1ccc(NC(=O)CN2CCN(C3c4ccccc4-c4ccccc43)CC2)c(OC)c1`, the IC50 was > 100 µM (inactive). This compound also displayed an IC50 under setting [1] above 100 µM. In addition, the IC90 under setting [2] was above 100 µM. The IC90 under setting [3] is above 100 µM.
On to `CC(C)(C)c1nn(-c2ccccc2)c2[nH]c(=O)c(CNc3ccc4c(c3)OCCO4)cc12`, for which the IC50 was 91.2 µM (inactive). Under setting [1], this compound returned an IC50 of 89.7 µM. This compound had an IC90 under setting [2] above 100 µM. Moreover, the IC90 under setting [3] was determined as 99.7 µM.
`Cc1cc(NC(=O)c2ccc3c(c2)OCCO3)ccc1NC(=O)c1cc2ccccc2o1`: the IC50 was 76.3 µM (inactive). Also, the IC50 under setting [1] was above 100 µM. In addition, the IC90 under setting [2] is above 100 µM. Also, the IC90 under setting [3] was above 100 µM.
With `CCN=c1scc(-c2ccccc2)n1/N=C/c1ccccn1`, the IC50 was 93.2 µM (inactive). For the same compound, under setting [1], the IC50 was above 100 µM. Under setting [2], the IC90 is above 100 µM. This compound also had an IC90 under setting [3] above 100 µM.
As to `Cc1onc(-c2ccccc2Cl)c1C(=O)NCc1ccc2c(c1)cc(C)n2C`, the IC50 is 16.6 µM (inactive). Under setting [1], this compound returned an IC50 of 39 µM. The IC90 under setting [2] amounted to 58.5 µM. This compound gave a concentration for an effect of 90% (IC90) under setting [3] of 29.4 µM.
For `COCc1nnc(NC(=O)c2ccc(S(=O)(=O)N(C)c3ccccc3)cc2)o1`, in that order: 17.4 µM (inactive), 40.3 µM, above 100 µM and above 100 µM.

Source of the values: PubChem BioAssay AID434987 (Southern Research Specialized Biocontainment Screening …, 2010).
